Test results as given in patent US20240026461A1, “BCL10 MUTATIONS AS BIOMARKERS FOR TARGETED THERAPY IN B CELL LYMPHOMAS” (priority 2022, published 2024).

Key:
[1] = tested on: BCL10^E140X ABC-DLBCL xenografts; experiment: Xenograft, JNJ-67690246 treatment, BCL10^E140X tumors; format: in vivo, mice; details: OCI-Ly10 cell line, p.o. 100 mg/kg twice per day
Source text: FIG. 7A-7K illustrate that subjects with BCL10 truncating mutant lymphomas are hypersensitive to MALT1 protease inhibitors. FIG. 7A graphically illustrates growth inhibition of human diffuse large B-cell lymphoma (HBL1) cells and OCI-Ly10 lymphoma cells expressing wild type or mutant BCL10 proteins in response to MALT1 inhibitor C3. X axis, concentration of compound (M); Y axis, inhibition of cell growth normalized to vehicle treated cells. **p<0.01; ***p<0.001; ****p<0.0001; ns, not significant. […] FIG. 7D graphically illustrates luciferase activity measured in the MALT1 GloSensor reporter cell lines treated with MALT1 inhibitor C3. […] FIG. 7E graphically illustrates luciferase activity measured in the MALT1 GloSensor reporter cell lines treated with MALT1 inhibitor MLT-748. […] FIG. 7F graphically illustrates luciferase activity measured in the MALT1 GloSensor reporter cell lines treated with MALT1 inhibitor JNJ-67690246. […] AUC was calculated with Prism. *p<0.05. FIG. 7J graphically illustrates tumor weight measured at the endpoint of the studies described in FIG. 7G-7I. *p<0.05.
All mice experiments were approved by Institutional Animal Care & Use Committee (IACUC) at Weill Cornell Medicine and were performed following the IACUC guidelines. […] Tumor volume was monitored 2˜3 times/week with digital caliper and calculated using the following formula. smallest diameter^2×largest diameter×0.5. […]

[2] = tested on: isogenic ABC-DLBCL cells expressing BCL10^WT, BCL10^R58Q and BCL10^E140X; experiment: Growth inhibition of isogenic ABC-DLBCL cells, response described in words; format: cell-based, human; details: 96 hours
Procedure: (§1) DLBCL cell lines were cultured in exponential condition and the cell growth was determined by CellTiter Glo (Promega). 3000-5000 cells were seeded and cultured in each well of 384 well plate for 96 h and treated with compounds every 48 h. Luminescence was read at the endpoint with the Synergy NEO microplate reader (BioTek). The value of compound treated cells was normalized to their vehicle treated controls and then used to calculate IC50 in GraphPad Prism (RRID:SCR_002798).
(§2) Given the distinct functional profiles, CARD11 dependencies, and MALT1 activation effects of the BCL10 CARD and truncation mutants, the inventors designed experiments to evaluate whether, and to what extent, these mutant BCL10 proteins might confer BTK inhibitor resistance. Isogenic ABC-DLBCL cells expressing BCL10WT, BCL10^R58Q and BCL10^E140X proteins were treated with escalating doses of three chemically distinct covalent BTK inhibitors: ibrutinib, acalabrutinib, or zanubrutinib. The cellular proliferation rates of the treated cells were measured using an ATP fluorescence assay after 96 hours of drug exposure.
(§3) Isogenic BCL10^WT, BCL10^R58Q and BCL10^E140X ABC-DLBCLs were exposed to increasing concentrations of each of these compounds for 96 hours.

HBL1^E140X = experiment: Growth inhibition assay (CellTiter Glo), HBL1 cells expressing BCL10 E140X; format: cell-based; details: Homo sapiens, 96 h, read-out: IC50, growth inhibition, MALT1 inhibitors
Procedure: as §1, §2, §3

Structure (SMILES): Cc1nc(-n2nccn2)c(Cl)cc1NC(=O)c1cnn(-c2cccc3c(=O)[nH]ccc23)c1C(F)(F)F [JNJ-67690246]
- growth of lymphoma xenografts [1]: significant reduction in growth
- growth response in words ([2]; BCL10^R58Q ABC-DLBCL cells): generally sensitive
- growth response in words ([2]; BCL10^WT ABC-DLBCL cells): generally sensitive
- IC50 (HBL1^E140X): 150 ± 20 nM
